Source: publication PMC5117131 (ACS chemical biology, 2016)
Entries after “also recorded” stand apart in the source; their conditions may differ. Where no end group is shown, it is not given here. TMR = tetramethylrhodamine dye

T1: TMR-E2F2^TD peptide (human)
T1 chain: {TMR}-QDDYLWGLEAGEGISDLFD

B1: E7 protein: full length HPV E7 protein (protein)
chain: MHGDTPTLHEYMLDLQPETTDLYCYEQLNDSSEEEDEIDGPAGQAEPDRAHYNIVTFCCKCDSTLRLCVQSTHVDIRTLEDLLMGTLGIVCPICSQKP
B2: phosphorylated Rb^NP (residues 55-787, Δ245-267, Δ582-642, phosphorylated by Cdk2-CycA) (domain or fragment, UniProt P06400 55-787, looked up)
chain: PDFTALCQKLKIPDHVRERAWLTWEKVSSVDGVLGGYIQKKKELWGICIFIAAVDLDEMSFTFTELQKNIEISVHKFFNLLKEIDTSTKVDNAMSRLLKKYDVLFALFSKLERTCELIYLTQPSSSISTEINSALVLKVSWITFLLAKGEVLQMEDDLVISFQLMLCVLDYFIKLSPPMLLKEPYKTAVIENDTRIIEVLCKEHECNIDEVKNVYFKNFIPFMNSLGLVTSNGLPEVENLSKRYEEIYLKNKDLDARLFLDHDKTLQTDSIDSFETQRTPRKSNLDEEVNVIPPHTPVRTVMNTIQQLMMILNSASDQPSENLISYFNNCTVNPKESILKRVKDIGYIFKEKFAKAVGQGCVEIGSQRYKLGVRLYYRVMESMLKSEEERLSIQNFSKLLNDNIFHMSLLACALEVVMATYSRSTSQNLDSGTDLSFPWILNVLNLKAFDFYKVIESFIKAEGNLTREMIKHLERCEHRIMESLAWLSDSPLFDLIKQSKDREGKSTSLSLFYKKVYRLAYLRLNTLCERLLSEHPELEHIIWTLFQHTLQNEYELMRDRHLDQIMMCSMYGICKVKNIDLKFKIIVTAYKDLPHAVQETFKRVLIKEEEYDSIIVFYNSVFMQRLKTNILQYASTRPPTLSPIPHIPR
modifications: quantitative phosphorylation on two sites (the construct contains the two sites T356 and T373)
B3: unphosphorylated Rb^NP (Rb N-terminal domain and pocket domain, residues 55-787, Δ245-267, Δ582-642) (domain or fragment, UniProt P06400 55-787, looked up)
chain: PDFTALCQKLKIPDHVRERAWLTWEKVSSVDGVLGGYIQKKKELWGICIFIAAVDLDEMSFTFTELQKNIEISVHKFFNLLKEIDTSTKVDNAMSRLLKKYDVLFALFSKLERTCELIYLTQPSSSISTEINSALVLKVSWITFLLAKGEVLQMEDDLVISFQLMLCVLDYFIKLSPPMLLKEPYKTAVIENDTRIIEVLCKEHECNIDEVKNVYFKNFIPFMNSLGLVTSNGLPEVENLSKRYEEIYLKNKDLDARLFLDHDKTLQTDSIDSFETQRTPRKSNLDEEVNVIPPHTPVRTVMNTIQQLMMILNSASDQPSENLISYFNNCTVNPKESILKRVKDIGYIFKEKFAKAVGQGCVEIGSQRYKLGVRLYYRVMESMLKSEEERLSIQNFSKLLNDNIFHMSLLACALEVVMATYSRSTSQNLDSGTDLSFPWILNVLNLKAFDFYKVIESFIKAEGNLTREMIKHLERCEHRIMESLAWLSDSPLFDLIKQSKDREGKSTSLSLFYKKVYRLAYLRLNTLCERLLSEHPELEHIIWTLFQHTLQNEYELMRDRHLDQIMMCSMYGICKVKNIDLKFKIIVTAYKDLPHAVQETFKRVLIKEEEYDSIIVFYNSVFMQRLKTNILQYASTRPPTLSPIPHIPR

Key:
[1] = target: phosphorylated Rb^NP–E2F^TMR (Homo sapiens, UniProt P06400, DEL245-267/DEL582-642); assay: FP EC50 measurement of Rb activation; format: biochemical; settings: 20 nM phosphorylated Rb^NP, 10 nM E2F^TMR, Figure 3b
Rb = settings: LxCxE-like peptides; cited from earlier work
[2] = target: E2F2 transactivation domain peptide (E2FTMR) 409-428 (UniProt Q14209); assay: fluorescence polarization, single concentration, 384-well; settings: reference: unphosphorylated RbNP; sites T356,T373
[3] = system: Rb Q736A/K740A docking interface mutant; assay: E2F^TD binding to Rb with mutated docking interface; format: biochemical; settings: Supporting Information Figure 3
TMR-E2F2^TD peptide = target: T1, TMR-E2F2^TD peptide; assay: fluorescence polarisation

Molecule | effect in the Rb activation assay (in words) [1] | affinity for Rb (in words) (Rb) | FP ratio (TMR-E2F2^TD peptide) [FP ratio] | other results
MEHQLLCCEVETIRRAY [cyclin D] | do not show activity; also recorded: no effect | weak affinity |  | 
Rb (retinoblastoma protein; RbNP construct) 55-787 (from UniProt P06400) Cdk2–CycA phosphorylated RbNP |  |  |  | other: FP ratio [2]: weaker; reference ~165
TDLEASLLSFEKLDRAphosSPDLWPE [LIN52] | do not show activity; also recorded: no effect | weak affinity |  | 
B1 |  |  |  | effect on E2F^TD binding to Rb with mutated docking interface [3]: do not affect E2F^TD binding to Rb
B2 |  |  | ~60 | 
B3 |  |  | ~165 | 
